Data reported in patent publication US8173652B2, “Isoxazole-isoxazoles and isoxazole-isothiazoles” (Hoffmann-La Roche Inc., priority 2009, dated 2012).

What follows are compounds tested against T1, human GABA A receptor α5β3γ2 (Homo sapiens, UniProt P18507+P31644) (assay: [3H]flumazenil competition binding assay, human GABA A α5 receptor). Settings: human α5β3γ2 receptors transiently transfected in HEK293 cells; displacement of [3H]flumazenil 0.5 nM; 1 hour at 4° C.; means of two determinations; read-out: hKi GABA A α5.
T1 construct: expressed in transfected cells; host or cells: HEK293 (transiently transfected), membrane preparation
Procedure: Membrane Preparation and Binding Assay
The affinity of compounds at GABA A receptor subtypes was measured by competition for [3H]flumazenil (85 Ci/mmol; Roche) binding to HEK293 cells expressing rat (stably transfected) or human (transiently transfected) receptors of composition α1β3γ2, α2β3γ2, α3β3γ2 and α5β3γ2.
Cell pellets were suspended in Krebs-tris buffer (4.8 mM KCl, 1.2 mM CaCl2, 1.2 mM MgCl2, 120 mM NaCl, 15 mM Tris; pH 7.5; binding assay buffer), homogenized by polytron for ca. 20 sec on ice and centrifuged for 60 min at 4° C. (50000 g; Sorvall, rotor: SM24=20000 rpm). The cell pellets were re-suspended in Krebs-tris buffer and homogenized by polytron for ca. 15 sec on ice. Protein was measured (Bradford method, Bio-Rad) and aliquots of 1 mL were prepared and stored at −80° C.
Radioligand binding assays were carried out in a volume of […] (96-well plates) which contained […] of cell membranes, [^3H]flumazenil at a concentration of 1 nM for α1, α2 and α3 subunits and 0.5 nM for α5 subunits and the test compound in the range of […]. Nonspecific binding was defined by 10^−5 M diazepam and typically represented less than 5% of the total binding. Assays were incubated to equilibrium for 1 hour at 4° C. and harvested onto GF/C uni-filters (Packard) by filtration using a Packard harvester and washing with ice-cold wash buffer (50 mM Tris; pH 7.5). After drying, filter-retained radioactivity was detected by liquid scintillation counting. Ki values were calculated using Excel-Fit (Microsoft) and are the means of two determinations.

| Structure (SMILES) | Ki |
| --- | --- |
| Cc1onc(-c2ccccc2)c1COc1cc(C(=O)NC(C)CO)on1 (stereo not shown) [Example 6, 3-(5-Methyl-3-phenyl-isoxazol-4-ylmethoxy)-isoxazole-5-carboxylic acid (2-hydroxy-1-methyl-ethyl)-amide] | 8.8 nM |
| CCCCc1noc(C)c1COc1cc(C(=O)N[C@@H](C)CO)on1 [Example 26, 3-(3-Butyl-5-methyl-isoxazol-4-ylmethoxy)-isoxazole-5-carboxylic acid ((S)-2-hydroxy-1-methyl-ethyl)-amide] | 22.7 nM |
| Cc1onc(-c2ccccc2)c1COc1cc(C(=O)NN2CCCCC2)on1 [Example 11, 3-(5-Methyl-3-phenyl-isoxazol-4-ylmethoxy)-isoxazole-5-carboxylic acid piperidin-1-yl-amide] | 13.8 nM |
| Cc1onc(-c2ccccn2)c1COc1cc(C(=O)NN2CCOCC2)on1 [Example 19, 3-(5-Methyl-3-pyridin-2-yl-isoxazol-4-ylmethoxy)-isoxazole-5-carboxylic acid morpholin-4-ylamide] | 2 nM |
| Cc1onc(-c2ccc(F)cn2)c1COc1cc(C(=O)NCCO)on1 [Example 23, 3-[3-(5-Fluoro-pyridin-2-yl)-5-methyl-isoxazol-4-ylmethoxy]-isoxazole-5-carboxylic acid (2-hydroxy-ethyl)-amide] | 2.2 nM |
| CCCCc1noc(C)c1COc1cc(C(=O)NN(C)C)on1 [Example 32, 3-(3-Butyl-5-methyl-isoxazol-4-ylmethoxy)-isoxazole-5-carboxylic acid N′,N′-dimethyl-hydrazide] | 56.8 nM |
| Cc1onc(-c2ccccc2)c1COc1cc(C(=O)NN2CCOCC2)on1 [Example 13, 3-(5-Methyl-3-phenyl-isoxazol-4-ylmethoxy)-isoxazole-5-carboxylic acid morpholin-4-ylamide] | 2.8 nM |
| Cc1onc(-c2ccccn2)c1COc1cc(C(=O)NCCO)sn1 [Example 37, 3-(5-Methyl-3-pyridin-2-yl-isoxazol-4-ylmethoxy)-isothiazole-5-carboxylic acid (2-hydroxy-ethyl)-amide] | 17.6 nM |
| CCCCc1noc(C)c1COc1cc(C(=O)NC(C)CO)on1 (stereo not shown) [Example 25, 3-(3-Butyl-5-methyl-isoxazol-4-ylmethoxy)-isoxazole-5-carboxylic acid (2-hydroxy-1-methyl-ethyl)-amide] | 27.7 nM |
| O=C(NC1CCOCC1)c1cc(OCc2c(-c3ccc(F)cc3)noc2CO)no1 [Example 44, 3-[3-(4-Fluoro-phenyl)-5-hydroxymethyl-isoxazol-4-ylmethoxy]-isoxazole-5-carboxylic acid (tetrahydro-pyran-4-yl)-amide] | 2.8 nM |
| Cc1onc(-c2ccccn2)c1COc1cc(C(=O)NN(C)C)on1 [Example 18, 3-(5-Methyl-3-pyridin-2-yl-isoxazol-4-ylmethoxy)-isoxazole-5-carboxylic acid N′,N′-dimethyl-hydrazide] | 8.9 nM |
| Cc1onc(-c2ccccn2)c1COc1cc(C(=O)NC(C)C)on1 [Example 14, 3-(5-Methyl-3-pyridin-2-yl-isoxazol-4-ylmethoxy)-isoxazole-5-carboxylic acid isopropyl-amide] | 2.5 nM |
| Cc1onc(-c2ccccn2)c1COc1cc(C(=O)NCCO)on1 [Example 15, 3-(5-Methyl-3-pyridin-2-yl-isoxazol-4-ylmethoxy)-isoxazole-5-carboxylic acid (2-hydroxy-ethyl)-amide] | 3 nM |
| Cc1onc(-c2ccccc2)c1COc1cc(C(=O)NC(C)C)sn1 [Example 34, 3-(5-Methyl-3-phenyl-isoxazol-4-ylmethoxy)-isothiazole-5-carboxylic acid isopropylamide] | 28 nM |

Second part, the compound after the results:

| Ki | Structure (SMILES) |
| --- | --- |
| 10.4 nM | CCCCc1noc(C)c1COc1cc(C(=O)NN2CCOCC2)on1 [Example 33, 3-(3-Butyl-5-methyl-isoxazol-4-ylmethoxy)-isoxazole-5-carboxylic acid morpholin-4-ylamide] |
| 11.8 nM | Cc1onc(-c2ccc(F)cn2)c1COc1cc(C(=O)NC(C)C)sn1 [Example 38, 3-[3-(5-Fluoro-pyridin-2-yl)-5-methyl-isoxazol-4-ylmethoxy]-isothiazole-5-carboxylic acid isopropylamide] |
| 28.6 nM | CCCCc1noc(C)c1/C=C/c1cc(C(=O)NCCO)on1 [Example 1, 3-[(E)-2-(3-Butyl-5-methyl-isoxazol-4-yl)-vinyl]-isoxazole-5-carboxylic acid (2-hydroxy-ethyl)-amide] |
| 2.3 nM | Cc1onc(-c2ccccn2)c1COc1cc(C(=O)NCC(F)(F)F)on1 [Example 17, 3-(5-Methyl-3-pyridin-2-yl-isoxazol-4-ylmethoxy)-isoxazole-5-carboxylic acid (2,2,2-trifluoro-ethyl)-amide] |
| 13 nM | Cc1onc(-c2ccc(F)cn2)c1COc1cc(C(=O)NCCO)sn1 [Example 39, 3-[3-(5-Fluoro-pyridin-2-yl)-5-methyl-isoxazol-4-ylmethoxy]-isothiazole-5-carboxylic acid (2-hydroxy-ethyl)-amide] |
| 18.5 nM | Cc1onc(-c2ccccc2)c1COc1cc(C(=O)NN2CCCC2)on1 [Example 12, 3-(5-Methyl-3-phenyl-isoxazol-4-ylmethoxy)-isoxazole-5-carboxylic acid pyrrolidin-1-yl-amide] |
| 8.5 nM | CCCCc1noc(C)c1COc1cc(C(=O)NC2CCOC2)on1 (stereo not shown) [Example 29, 3-(3-Butyl-5-methyl-isoxazol-4-ylmethoxy)-isoxazole-5-carboxylic acid (tetrahydro-furan-3-yl)-amide] |
| 9.8 nM | Cc1onc(-c2ccc(F)cc2)c1COc1cc(C(=O)N2CC3(COC3)C2)on1 [Example 42, {3-[3-(4-Fluoro-phenyl)-5-methyl-isoxazol-4-ylmethoxy]-isoxazol-5-yl}-(2-oxa-6-aza-spiro[3.3]hept-6-yl)-methanone] |
| 16.8 nM | CC(=O)OCCNC(=O)c1cc(OCc2c(-c3ccccc3)noc2C)no1 [Example 7, Acetic acid 2-{[3-(5-methyl-3-phenyl-isoxazol-4-ylmethoxy)-isoxazole-5-carbonyl]-amino}-ethyl ester] |
| 15 nM | Cc1onc(-c2ccccn2)c1COc1cc(C(=O)NC(C)C)sn1 [Example 36, 3-(5-Methyl-3-pyridin-2-yl-isoxazol-4-ylmethoxy)-isothiazole-5-carboxylic acid isopropyl-amide] |
| 7.8 nM | Cc1onc(-c2ccccn2)c1COc1cc(C(=O)NN2CCCC2)on1 [Example 21, 3-(5-Methyl-3-pyridin-2-yl-isoxazol-4-ylmethoxy)-isoxazole-5-carboxylic acid pyrrolidin-1-ylamide] |
| 6 nM | Cc1onc(-c2ccccn2)c1COc1cc(C(=O)NN2CCCCC2)on1 [Example 20, 3-(5-Methyl-3-pyridin-2-yl-isoxazol-4-ylmethoxy)-isoxazole-5-carboxylic acid piperidin-1-ylamide] |
| 38 nM | CCCCc1noc(C)c1COc1cc(C(=O)N[C@H](C)CO)on1 [Example 27, 3-(3-Butyl-5-methyl-isoxazol-4-ylmethoxy)-isoxazole-5-carboxylic acid ((R)-2-hydroxy-1-methyl-ethyl)-amide] |
| 22.2 nM | Cc1onc(-c2ccccc2)c1COc1cc(C(=O)NN(C)C)on1 [Example 10, 3-(5-Methyl-3-phenyl-isoxazol-4-ylmethoxy)-isoxazole-5-carboxylic acid N′,N′-dimethyl-hydrazide] |
| 22.2 nM | CCCCc1noc(C)c1COc1cc(C(=O)NCCO)on1 [Example 24, 3-(3-Butyl-5-methyl-isoxazol-4-ylmethoxy)-isoxazole-5-carboxylic acid (2-hydroxy-ethyl)-amide] |
| 6.5 nM | CCCCc1noc(C)c1COc1cc(C(=O)NC2CCOC2)on1 (single isomer, unassigned) [Example 30, (R or S)-3-(3-Butyl-5-methyl-isoxazol-4-ylmethoxy)-isoxazole-5-carboxylic acid (tetrahydro-furan-3-yl)-amide] |
| 28.9 nM | CCCCc1noc(C)c1COc1cc(C(=O)NC2CCOC2)sn1 (stereo not shown) [Example 41, 3-(3-Butyl-5-methyl-isoxazol-4-ylmethoxy)-isothiazole-5-carboxylic acid (tetrahydro-furan-3-yl)-amide] |
| 2.8 nM | CCCCc1noc(C)c1COc1cc(C(=O)NC2CCOC2)on1 (single isomer, unassigned) [Example 31, (S or R)-3-(3-Butyl-5-methyl-isoxazol-4-ylmethoxy)-isoxazole-5-carboxylic acid (tetrahydro-furan-3-yl)-amide] |
| 35 nM | Cc1onc(-c2ccccc2)c1COc1cc(C(=O)NCCO)sn1 [Example 35, 3-(5-Methyl-3-phenyl-isoxazol-4-ylmethoxy)-isothiazole-5-carboxylic acid (2-hydroxy-ethyl)-amide] |
| 7.5 nM | Cc1onc(-c2ccccc2)c1COc1cc(C(=O)NC(C)C)on1 [Example 3, 3-(5-Methyl-3-phenyl-isoxazol-4-ylmethoxy)-isoxazole-5-carboxylic acid isopropylamide] |
